# Values of other authors in patent publication US11174243B2, “Succinate forms and compositions of Bruton's tyrosine kinase inhibitors” (Sunesis Pharmaceuticals, Inc., priority 2016, dated 2021).
# Read-outs that look alike come from different tables or passages of the source.
# Details: mean, cited from earlier work
Structure (SMILES),AUC0-24 (100 mg BID (steady state)) [ng·h/mL],Cmax (100 mg BID (steady state)) [ng/mL],Cmax (560 mg (single dose)) [ng/mL]
CC#CC(=O)N1CCC[C@H]1c1nc(-c2ccc(C(=O)Nc3ccccn3)cc2)c2c(N)nccn12 [Acalabrutinib],1850,827,–
C=CC(=O)N1CCC[C@@H](n2nc(-c3ccc(Oc4ccccc4)cc3)c3c(N)ncnc32)C1 [Ibrutinib],–,–,141
